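In this assay, cells in 96-well plates receive the compound at five concentrations for 48 hours. Endpoints are linearly interpolated between the surrounding concentrations. Definition used: TGI = concentration required for complete inhibition of growth.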
What was measured:
Assay in all cases: DTP human tumour cell line panel, 48 h
SNB-75 CNS = tested on: SNB-75 CNS
UACC-257 melanoma = tested on: UACC-257 melanoma
MDA-N = tested on: MDA-N
HT29 colon = tested on: HT29 colon
SF-295 CNS = tested on: SF-295 CNS
MDA-MB-435 = tested on: MDA-MB-435
BT-549 breast = tested on: BT-549 breast
NCI-H23 lung = tested on: NCI-H23 lung
UACC-62 melanoma = tested on: UACC-62 melanoma
PC-3 prostate = tested on: PC-3 prostate
T-47D breast = tested on: T-47D breast
A498 renal = tested on: A498 renal
HOP-62 NSCLC = tested on: HOP-62 NSCLC
MDA-MB-231 breast = tested on: MDA-MB-231 breast
OVCAR-5 ovarian = tested on: OVCAR-5 ovarian
HS 578T breast = tested on: HS 578T breast
SW-620 colon = tested on: SW-620 colon
SNB-19 CNS = tested on: SNB-19 CNS
SK-MEL-28 melanoma = tested on: SK-MEL-28 melanoma
IGROV1 ovarian = tested on: IGROV1 ovarian
MALME-3M melanoma = tested on: MALME-3M melanoma
EKVX NSCLC = tested on: EKVX NSCLC
MCF7 breast = tested on: MCF7 breast
HCT-15 colon = tested on: HCT-15 colon
SF-539 CNS = tested on: SF-539 CNS
SK-MEL-2 melanoma = tested on: SK-MEL-2 melanoma
DU-145 prostate = tested on: DU-145 prostate
U251 CNS = tested on: U251 CNS
SN12C renal = tested on: SN12C renal
M14 melanoma = tested on: M14 melanoma
NCI-H522 lung = tested on: NCI-H522 lung
TK-10 renal = tested on: TK-10 renal
UO-31 renal = tested on: UO-31 renal
RXF 393 renal = tested on: RXF 393 renal
OVCAR-8 ovarian = tested on: OVCAR-8 ovarian
HCT-116 colon = tested on: HCT-116 colon
OVCAR-4 ovarian = tested on: OVCAR-4 ovarian
NCI/ADR-RES ovarian = tested on: NCI/ADR-RES ovarian
KM12 colon = tested on: KM12 colon
786-0 renal = tested on: 786-0 renal
LOX IMVI melanoma = tested on: LOX IMVI melanoma
ACHN renal = tested on: ACHN renal
SK-OV-3 ovarian = tested on: SK-OV-3 ovarian
A549 NSCLC = tested on: A549 NSCLC
CAKI-1 renal = tested on: CAKI-1 renal
SF-268 CNS = tested on: SF-268 CNS
HCC-2998 colon = tested on: HCC-2998 colon
OVCAR-3 ovarian = tested on: OVCAR-3 ovarian
RPMI-8226 leukemia = tested on: RPMI-8226 leukemia
SK-MEL-5 melanoma = tested on: SK-MEL-5 melanoma
SR leukemia = tested on: SR leukemia
K-562 leukemia = tested on: K-562 leukemia
NCI-H226 lung = tested on: NCI-H226 lung
CCRF-CEM leukemia = tested on: CCRF-CEM leukemia
MOLT-4 leukemia = tested on: MOLT-4 leukemia
HOP-92 NSCLC = tested on: HOP-92 NSCLC
HL-60(TB) leukemia = tested on: HL-60(TB) leukemia
COLO 205 colon = tested on: COLO 205 colon

With `COCN1C(=O)[C@@H]2CCCN2C(=O)c2cc(OC)c(Cc3ccccc3)cc21` the TGI (SNB-75 CNS) was over 100 µM, the TGI (UACC-257 melanoma) was over 100 µM and the TGI (MDA-N) was over 100 µM. For the same compound, the TGI (HT29 colon) was over 100 µM, the TGI (SF-295 CNS) was over 100 µM and the TGI (MDA-MB-435) was over 100 µM. For the same compound, the TGI (BT-549 breast) was over 100 µM, the TGI (NCI-H23 lung) was over 100 µM and the TGI (UACC-62 melanoma) was over 100 µM. For the same compound, the TGI (PC-3 prostate) was over 100 µM, the TGI (T-47D breast) was over 100 µM and the TGI (A498 renal) was over 100 µM. The TGI (HOP-62 NSCLC) was over 100 µM, the TGI (MDA-MB-231 breast) was over 100 µM and the TGI (OVCAR-5 ovarian) was over 100 µM. The TGI (HS 578T breast) was over 100 µM, the TGI (SW-620 colon) was over 100 µM and the TGI (SNB-19 CNS) was over 100 µM. It also gave a TGI (SK-MEL-28 melanoma) of over 100 µM, a TGI (IGROV1 ovarian) of over 100 µM and a TGI (MALME-3M melanoma) of over 100 µM. It also gave a TGI (EKVX NSCLC) of over 100 µM, a TGI (MCF7 breast) of over 100 µM and a TGI (HCT-15 colon) of over 100 µM. It also gave a TGI (SF-539 CNS) of over 100 µM, a TGI (SK-MEL-2 melanoma) of over 100 µM and a TGI (DU-145 prostate) of over 100 µM. For the same compound, the TGI (U251 CNS) was over 100 µM, the TGI (SN12C renal) was over 100 µM and the TGI (M14 melanoma) was over 100 µM. For the same compound, the TGI (NCI-H522 lung) was over 100 µM, the TGI (TK-10 renal) was over 100 µM and the TGI (UO-31 renal) was over 100 µM. The TGI (RXF 393 renal) was over 100 µM, the TGI (OVCAR-8 ovarian) was over 100 µM and the TGI (HCT-116 colon) was over 100 µM. It also gave a TGI (OVCAR-4 ovarian) of over 100 µM, a TGI (NCI/ADR-RES ovarian) of over 100 µM and a TGI (KM12 colon) of over 100 µM. It also gave a TGI (786-0 renal) of over 100 µM, a TGI (LOX IMVI melanoma) of over 100 µM and a TGI (ACHN renal) of over 100 µM. The TGI (SK-OV-3 ovarian) was over 100 µM, the TGI (A549 NSCLC) was over 100 µM and the TGI (CAKI-1 renal) was over 100 µM. For the same compound, the TGI (SF-268 CNS) was over 100 µM.
Compound `CC(=O)c1ccc(Br)cc1NC1=CC(=O)c2ncccc2C1=O` has a TGI (SNB-75 CNS) of 5.58 µM, a TGI (UACC-257 melanoma) of 4.94 µM and a TGI (HCC-2998 colon) of 8.54 µM. It also gave a TGI (MDA-N) of 3.62 µM, a TGI (HT29 colon) of 12.3 µM and a TGI (SF-295 CNS) of 14.3 µM. It also gave a TGI (MDA-MB-435) of 3.06 µM, a TGI (OVCAR-3 ovarian) of 4.09 µM and a TGI (NCI-H23 lung) of 13 µM. The TGI (UACC-62 melanoma) was 6.13 µM, the TGI (RPMI-8226 leukemia) was 8.95 µM and the TGI (SK-MEL-5 melanoma) was 1.3 µM. It also gave a TGI (PC-3 prostate) of 13.5 µM, a TGI (SR leukemia) of 5.97 µM and a TGI (K-562 leukemia) of 10.1 µM. For the same compound, the TGI (T-47D breast) was 9.37 µM, the TGI (A498 renal) was 5.85 µM and the TGI (HOP-62 NSCLC) was 13.1 µM. The TGI (MDA-MB-231 breast) was 10.8 µM, the TGI (OVCAR-5 ovarian) was 33.8 µM and the TGI (HS 578T breast) was 35.6 µM. The TGI (SNB-19 CNS) was 11.3 µM, the TGI (SK-MEL-28 melanoma) was 20.7 µM and the TGI (IGROV1 ovarian) was 12.4 µM. The TGI (NCI-H226 lung) was 15.5 µM, the TGI (MALME-3M melanoma) was 5.69 µM and the TGI (EKVX NSCLC) was 19.4 µM. The TGI (CCRF-CEM leukemia) was 32.2 µM, the TGI (MCF7 breast) was 11.6 µM and the TGI (HCT-15 colon) was 10.3 µM. The TGI (SF-539 CNS) was 6.96 µM, the TGI (SK-MEL-2 melanoma) was 16.9 µM and the TGI (DU-145 prostate) was 16.4 µM. For the same compound, the TGI (U251 CNS) was 19.7 µM, the TGI (MOLT-4 leukemia) was 9.6 µM and the TGI (SN12C renal) was 19.1 µM. For the same compound, the TGI (M14 melanoma) was 10.6 µM, the TGI (NCI-H522 lung) was 10.4 µM and the TGI (TK-10 renal) was 31.4 µM. It also gave a TGI (UO-31 renal) of 15.8 µM, a TGI (RXF 393 renal) of 18.7 µM and a TGI (OVCAR-8 ovarian) of 18.2 µM. The TGI (HCT-116 colon) was 4.5 µM, the TGI (OVCAR-4 ovarian) was 11.2 µM and the TGI (NCI/ADR-RES ovarian) was 14.9 µM. For the same compound, the TGI (KM12 colon) was 11.7 µM, the TGI (786-0 renal) was 15.3 µM and the TGI (HOP-92 NSCLC) was 26 µM. For the same compound, the TGI (HL-60(TB) leukemia) was 3.61 µM, the TGI (LOX IMVI melanoma) was 18.9 µM and the TGI (ACHN renal) was 12.5 µM. For the same compound, the TGI (SK-OV-3 ovarian) was 29.1 µM, the TGI (A549 NSCLC) was 10.6 µM and the TGI (CAKI-1 renal) was 22.3 µM. For the same compound, the TGI (SF-268 CNS) was 21.7 µM and the TGI (COLO 205 colon) was 11.4 µM.

Reference: PubChem BioAssay (NCI)
